The series has as its target ATP-dependent translocase ABCB1 (Mus musculus, UniProt P21447). Briefly: TP_TRANSPORTER: increase in brain concentration in mdr1a(-/-) mouse. It counts as functional, organism-based. The following applies: in vivo.

For two molecules, Activity results are on record in ChEMBL document CHEMBL2074361, “Effect of mdr1a P-glycoprotein gene disruption, gender, and substrate concentration on brain uptake of selected compounds” (Pharm Res, 2001).

Chain of ATP-dependent translocase ABCB1 (P21447 whole entry): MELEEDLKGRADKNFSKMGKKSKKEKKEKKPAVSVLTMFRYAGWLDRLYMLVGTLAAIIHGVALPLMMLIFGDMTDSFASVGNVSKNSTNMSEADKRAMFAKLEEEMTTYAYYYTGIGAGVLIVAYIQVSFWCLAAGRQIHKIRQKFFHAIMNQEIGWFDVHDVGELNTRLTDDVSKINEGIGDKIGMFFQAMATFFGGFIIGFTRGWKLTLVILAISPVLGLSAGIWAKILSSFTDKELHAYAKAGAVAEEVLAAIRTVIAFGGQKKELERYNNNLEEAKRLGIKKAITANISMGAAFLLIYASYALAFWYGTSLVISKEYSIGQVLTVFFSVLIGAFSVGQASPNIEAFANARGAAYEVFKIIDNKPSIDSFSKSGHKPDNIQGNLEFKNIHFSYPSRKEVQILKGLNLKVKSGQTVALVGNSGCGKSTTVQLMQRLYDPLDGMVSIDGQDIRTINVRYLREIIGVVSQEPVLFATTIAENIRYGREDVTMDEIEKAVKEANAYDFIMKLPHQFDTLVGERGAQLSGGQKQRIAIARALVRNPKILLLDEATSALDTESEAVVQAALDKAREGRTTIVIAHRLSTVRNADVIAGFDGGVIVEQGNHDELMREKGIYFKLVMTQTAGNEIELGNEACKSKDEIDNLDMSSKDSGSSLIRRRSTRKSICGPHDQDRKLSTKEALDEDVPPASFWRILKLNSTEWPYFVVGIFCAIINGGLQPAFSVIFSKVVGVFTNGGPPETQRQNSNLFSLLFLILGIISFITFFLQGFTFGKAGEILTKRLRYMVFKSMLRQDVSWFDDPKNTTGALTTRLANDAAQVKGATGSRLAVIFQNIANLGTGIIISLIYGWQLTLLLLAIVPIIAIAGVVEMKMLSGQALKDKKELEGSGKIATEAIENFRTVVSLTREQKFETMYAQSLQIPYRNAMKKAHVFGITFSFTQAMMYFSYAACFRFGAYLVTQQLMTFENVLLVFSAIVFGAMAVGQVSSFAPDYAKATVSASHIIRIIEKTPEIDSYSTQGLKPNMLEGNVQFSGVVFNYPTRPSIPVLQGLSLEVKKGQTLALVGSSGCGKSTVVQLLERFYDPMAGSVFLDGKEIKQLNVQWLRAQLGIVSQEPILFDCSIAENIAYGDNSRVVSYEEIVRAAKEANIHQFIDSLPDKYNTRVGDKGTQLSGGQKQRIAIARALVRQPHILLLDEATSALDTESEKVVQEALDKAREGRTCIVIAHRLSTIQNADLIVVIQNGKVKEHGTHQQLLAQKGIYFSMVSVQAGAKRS

Take `CN1CC[C@]23c4c5ccc(O)c4O[C@H]2[C@@H](O)C=C[C@H]3[C@H]1C5` [MORPHINE]: the Activity entry was “substrate [+]”. Take `C=C[C@H]1C[N@@]2CC[C@H]1C[C@@H]2[C@@H](O)c1ccnc2ccc(OC)cc12` [QUINIDINE]: the Activity entry is “substrate [+]”.
